For one assay, the system named is THP-1. The experiment in a line: Growth inhibition assay (GI50), THP-1. The assay is classed as cell-based. The settings on record: Homo sapiens.
Assay [1] addresses T1, human GST-MEK1^CA (Ser218Asp, Ser222Asp) (Homo sapiens, UniProt Q02750, S218D/S222D).
T1 construct: GST; made in house; host or cells: Escherichia coli
Briefly: MEK1 kinase assay (generation of IC50 data, 33P filter assay with ERK2 and MBP). The assay is classed as biochemical. The settings on record: ATP. The text has this: Materials and preparation of reagents: Human GST-MEK1 and the constitutively active allele GST-MEK1^CA (harboring the mutations Ser218Asp and Ser222Asp) were subcloned into the yeast expression vector pGEM4Z (Promega, Madison, Wis.) from the wild type human MEK1 cDNA. GST-MEK1^CA was expressed in Escherichia coli and partially purified using Glutathione Sepharose 4B affinity resin (Amersham Pharmacia Biotech, Piscataway, N.J.). The ERK2 allele was subcloned from MAPK2/Erk2 cDNA (wild type) in pUSEamp (Upstate Biotechnology, Inc., Waltham, Mass.) into the vector pET21a (Novagen, Madison, Wis.) resulting in an N-terminal histidine-tagged mouse ERK2 allele. ERK2 was expressed and purified to homogeneity [Zhang, 1993 #33]. Myelin basic protein (MBP) was purchased from Gibco BRL (Rockville, Md.). EasyTides adenosine 5′-triphosphate (ATP) ([γ-^33P]) (NEN Perkin Elmer, Wellesley, Mass.) was the source of radiolabel for all kinase reactions. Activated Raf-1 (truncated) and activated MAPKinase 2/ERK2 were purchased from Upstate, Inc. (Lake Placid, N.Y.). 4-20% Criterion Precast gels were purchased from Bio-Rad (Hercules, Calif.).
Determination of enzymatic activity: Compounds were diluted from dimethylsulfoxide (DMSO) stocks into 1×HMNDE (20 mM HEPES pH 7.2, 1 mM MgCl2, 100 mM NaCl, 1.25 mM DTT, 0.2 mM EDTA). A typical 25-microliter assay contained 0.002 nanomoles MEK1^CA, 0.02 nanomoles ERK2, 0.25 nanomoles MBP, 0.25 nanomoles unlabeled ATP, and 0.1 μCi [γ^33P] ATP. The screening assay essentially comprised four additions. Five μl of diluted compound were dispensed to 96-well assay plates. Ten μl of 2.5× enzyme cocktail (MEK1^CA and ERK2 only) were then added to each well followed by a pre-incubation for 30 minutes at ambient temperature. Ten μl of 2.5× substrate cocktail (labeled and unlabeled ATP plus MBP) were then added, followed by incubation for 60 minutes at ambient temperature. Finally, 100 μl of 10% trichloroacetic acid (TCA) were added and incubated for 30 minutes at room temperature to halt the reaction and precipitate radiolabeled protein products. Reaction products were harvested on glass fiber 96 well filter plates prewetted with water and 1% pyrophosphate. The filter plate was then washed 5 times with water. Water was displaced by absolute ethanol and the plate was allowed to air dry for 30 minutes at room temperature. A back seal was applied manually and 40 μl of scintillation cocktail were dispensed to each well. A top seal was applied and the plate was counted in the TopCount for two seconds per well.

A further assay relates to A375 cells. Briefly: Growth inhibition assay (GI50), A375 cells, CellTiterGlo. The assay is classed as cell-based. The conditions noted are these: Homo sapiens, A-375, 48 hr, ATP levels. Here is the method:
For growth inhibition experiments, A375 cells were plated in white 384-well microplates at 1000 cells/[…]/well. After 24 hr, […] of a 5× drug stock solution was added. All drugs were initially prepared as 200× stocks in DMSO, such that final DMSO concentration was 0.5%. Cells were incubated for 48 hr at 37° C. and ATP levels were determined using CellTiterGlo (Promega, Madison, Wis.). A control MEK inhibitor was used to determine the ATP level corresponding to full growth inhibition and the concentration of test compound that gave ATP levels midway between full growth inhibition and vehicle only ATP levels was determined to be the GI50 using non-linear regression (GraphPad Prism 4).
For orientation: In ATP-based viability assays light output follows the ATP content of the culture.

A short description of assay [2]: EC50 (no method described).

Structures are written as SMILES.

T1 sequence (Q02750 whole entry S218D/S222D): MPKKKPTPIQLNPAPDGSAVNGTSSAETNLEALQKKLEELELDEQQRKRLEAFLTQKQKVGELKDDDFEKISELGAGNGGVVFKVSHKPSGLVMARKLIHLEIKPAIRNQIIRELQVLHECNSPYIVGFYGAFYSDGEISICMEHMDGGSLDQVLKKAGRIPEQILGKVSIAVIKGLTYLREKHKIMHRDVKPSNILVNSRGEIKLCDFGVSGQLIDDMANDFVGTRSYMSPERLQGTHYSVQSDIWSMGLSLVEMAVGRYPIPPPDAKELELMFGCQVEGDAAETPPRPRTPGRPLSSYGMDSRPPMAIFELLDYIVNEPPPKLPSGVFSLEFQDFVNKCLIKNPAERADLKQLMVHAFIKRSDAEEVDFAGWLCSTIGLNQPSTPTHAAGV

As a reminder, the GI50 is the concentration giving 50% growth inhibition. High values mean less potent growth inhibition, low ones more potent growth inhibition. As usually defined, the IC50 is the concentration needed to halve the response being measured. Low readings indicate greater potency in that assay, high ones weaker potency in that assay. On to `Cn1cc(NS(=O)(=O)C2CC2)c(Nc2ccc(Br)cc2F)c(F)c1=O` [Example 7, Cyclopropanesulfonic acid [4-(4-bromo-2-fluoro-phenylamino)-5-fluoro-1-methyl-6-oxo-1,6-dihydro-pyridin-3-yl]-amide], for which the 50% growth inhibitory concentration (GI50) in the assay on THP-1 and in the assay on A375 cells was > 1000 nM each time. In addition, in assay [1], the IC50 was in the range of 500 to 1000 nM.
For orientation: EC50 means the concentration giving half of the maximal effect. Low readings indicate a more potent agent, high ones a less potent agent. As to `Cn1cc(NS(=O)(=O)C2CC2)c(Nc2ccc(I)cc2F)cc1=O` [Example 1, N-(4-(2-fluoro-4-iodophenylamino)-1-methyl-6-oxo-1,6-dihydropyridin-3-yl)cyclopropanesulfonamide], the GI50 with THP-1 and in the assay on A375 cells was < 100 nM in each case. The IC50 in assay [1] was 500 to 1000 nM. For the same compound, the EC50 in assay [2] was < 100 nM.
Consider `Cn1cc(NS(=O)(=O)C2CC2)c(Nc2ccc(I)cc2F)c(F)c1=O` [Example 4, N-(5-fluoro-4-(2-fluoro-4-iodophenylamino)-1-methyl-6-oxo-1,6-dihydropyridin-3-yl)cyclopropanesulfonamide], for which the values for the GI50 with THP-1 and in the assay on A375 cells were > 1000 nM and < 100 nM, respectively. In addition, in assay [1], the IC50 was < 100 nM. In addition, the EC50 in assay [2] is < 100 nM.
Turning to `Cc1c(Nc2ccc(I)cc2F)c(NS(=O)(=O)C2CC2)cn(C)c1=O` [Example 5, N-(4-(2-fluoro-4-iodophenylamino)-1,5-dimethyl-6-oxo-1,6-dihydropyridin-3-yl)cyclopropanesulfonamide], in assay [1], the IC50 was < 100 nM. In addition, the EC50 in assay [2] is < 100 nM.
Compound `Cc1c(Nc2ccc(I)cc2F)c(NS(=O)(=O)C2(Cl)CC2)cn(C)c1=O` [Example 10, 1-Chloro-Cyclopropanesulfonic acid [4-(2-fluoro-4-iodo-phenylamino)-1,5-dimethyl-6-oxo-1,6-dihydro-pyridin-3-yl]-amide] yielded an IC50 in assay [1] of 100 to 500 nM. The EC50 in assay [2] was < 100 nM.
On to `Cn1cc(NS(=O)(=O)C2CC2)c(Nc2ccc(I)cc2F)c(Cl)c1=O` [Example 9, Cyclopropanesulfonic acid [5-chloro-4-(2-fluoro-4-iodo-phenylamino)-1-methyl-6-oxo-1,6-dihydro-pyridin-3-yl]-amide], for which the GI50 is > 1000 nM in the assay on THP-1 and 500 to 1000 nM in the assay with A375 cells. Besides, the concentration for half-maximal inhibition (IC50) in assay [1] is < 100 nM. The EC50 in assay [2] was < 100 nM.
As for `CN(C)S(=O)(=O)Nc1cn(C)c(=O)cc1Nc1ccc(I)cc1F` [Example 6, N-(4-(2-fluoro-4-iodophenylamino)-1-methyl-6-oxo-1,6-dihydropyridin-3-yl)dimethyl-1-sulfamide], the figures for the GI50 in the assay with THP-1 and with A375 cells were 100 to 500 nM and 500 to 1000 nM, respectively. Also, in assay [1], the IC50 is > 1000 nM. In assay [2], this compound displayed an EC50 of 500 to 1000 nM.
For the compound `Cn1cc(NS(=O)(=O)C2(CC(=O)CO)CC2)c(Nc2ccc(I)cc2F)c(F)c1=O` [Example 12, 1-(3-Hydroxy-2-oxo-propyl)-cyclopropanesulfonic acid [5-fluoro-4-(2-fluoro-4-iodo-phenylamino)-1-methyl-6-oxo-1,6-dihydro-pyridin-3-yl]-amide], in assay [1], the IC50 was < 100 nM. For the same compound, the EC50 in assay [2] is < 100 nM.
On to `Cn1cc(NS(=O)(=O)C2CC2)c(Nc2ccc(Br)cc2F)cc1=O` [Example 8, Cyclopropanesulfonic acid [4-(4-bromo-2-fluoro-phenylamino)-1-methyl-6-oxo-1,6-dihydro-pyridin-3-yl]-amide], for which the IC50 in assay [1] was > 1000 nM.
Turning to `Cn1cc(NS(=O)(=O)C2(CC(O)CO)CC2)c(Nc2ccc(I)cc2F)cc1=O` (stereo not drawn) [Example 2, 1-(2,3-dihydroxypropyl)-N-(4-(2-fluoro-4-iodophenylamino)-1-methyl-6-oxo-1,6-dihydropyridin-3-yl)cyclopropane-1-sulfonamide], the GI50 in the assay with THP-1 and in the assay on A375 cells was > 1000 nM in each case. The same compound registered an IC50 in assay [1] of 500 to 1000 nM. In addition, the EC50 in assay [2] was in the range of 500 to 1000 nM.
As to `Cn1cc(NS(=O)(=O)C2(CC(O)CO)CC2)c(Nc2ccc(I)cc2F)c(F)c1=O` (stereo not drawn) [Example 11, 1-(2,3-Dihydroxy-propyl)-cyclopropanesulfonic acid [5-fluoro-4-(2-fluoro-4-iodo-phenylamino)-1-methyl-6-oxo-1,6-dihydro-pyridin-3-yl]-amide], the half-inhibitory concentration (IC50) in assay [1] is < 100 nM. The compound further yielded an EC50 in assay [2] of 100 to 500 nM.
As to `Cn1cc(NS(=O)(=O)NCC(O)CO)c(Nc2ccc(I)cc2F)cc1=O` (stereo not drawn) [Example 13], the GI50 in the assay on THP-1 and in the assay with A375 cells was > 1000 nM throughout. Further, in assay [1], the IC50 was > 1000 nM.
For the compound `Cn1cc(NS(=O)(=O)C2CC2)c(Nc2ccc(Br)cc2F)c(Cl)c1=O` [Example 3, N-(5-chloro-4-(2-fluoro-4-bromophenylamino)-1-methyl-6-oxo-1,6-dihydropyridin-3-yl)cyclopropanesulfonamide], the GI50 in the assay with THP-1 and in the assay on A375 cells was > 1000 nM each time. Further, the IC50 in assay [1] was in the range of 500 to 1000 nM. The EC50 in assay [2] lay in the range of 100 to 500 nM.

The values are drawn from patent US8716318B2, “Pyridone sulfonamides and pyridone sulfamides as MEK inhibitors” (Ardea Biosciences, priority 2006, dated 2014).
